This passage reports EC50 results from patent US20230271949A1, “GLP-1R MODULATING COMPOUNDS” (ASCLETIS BIOSCIENCE CO., LTD., priority 2022, published 2023).

Chain of GLP-1R (P43220 24-463): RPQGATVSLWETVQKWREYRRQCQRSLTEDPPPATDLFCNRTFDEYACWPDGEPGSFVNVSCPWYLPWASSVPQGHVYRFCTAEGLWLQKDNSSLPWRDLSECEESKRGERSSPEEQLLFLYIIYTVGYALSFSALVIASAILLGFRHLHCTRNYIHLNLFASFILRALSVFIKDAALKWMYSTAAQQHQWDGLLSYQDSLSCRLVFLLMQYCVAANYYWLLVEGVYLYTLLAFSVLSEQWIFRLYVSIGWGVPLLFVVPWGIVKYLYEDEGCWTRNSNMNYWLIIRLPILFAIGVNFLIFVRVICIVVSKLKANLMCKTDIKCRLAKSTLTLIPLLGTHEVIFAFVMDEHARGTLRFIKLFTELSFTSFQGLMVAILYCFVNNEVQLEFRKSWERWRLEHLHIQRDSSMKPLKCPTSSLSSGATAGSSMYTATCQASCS

In the assay the target is GLP-1R (Homo sapiens, UniProt P43220). Nature of the assay: GLP-1R agonist cAMP stimulation assay (HTRF cAMP). The format is cell-based. As to conditions: HEK293 cell line expressing GLP-1 target; HTRF cAMP agonist mode, 30 min at RT. The procedure, abridged:
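GLP-1R-expressing cells were stimulated with 10-point, 3-fold compound dilutions for 30 min at RT; HTRF cAMP detection reagents were then added for 60 min and the 665/615 ratio read. Ratios were converted to cAMP via a standard curve and % activity scaled between DMSO and top-concentration GLP-1(7-37) reference wells.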
For orientation: Time-resolved FRET reads energy transfer from a long-lived donor to a nearby acceptor.
The term EC50 denotes the concentration giving half of the maximal effect. The molecule `O=C(O)CNC(=O)c1ccc2c(c1)nc(CN1CCC(c3cccc(OCc4ccc(Cl)cc4F)n3)CC1)n2C[C@@H]1CCO1` [Compound 50] returned a half-maximal effective concentration (EC50) of 34 nM.
Molecule `Cc1cc(NC(=O)c2ccc3c(c2)nc(CN2CCC(c4cccc5c4OC(C)(c4ccc(Cl)cc4F)O5)CC2)n3C[C@@H]2CCO2)cc2[nH]c(=O)[nH]c12` (stereo partly drawn) [Compound 339] returned a 50% effective concentration (EC50) of 0.39 nM.
The figure for `CC1(C)C[C@@H](C(=O)O)N(C(=O)CNC(=O)c2ccc3c(c2)nc(CN2CCC(c4cccc(OCc5ccc(Cl)cc5F)n4)CC2)n3C[C@@H]2CCO2)C1` [Compound 58] is 4.35 nM; for `O=C(Nc1ccc2ncsc2c1)c1ccc2c(c1)nc(CN1CCC(c3cccc(OCc4ccc(Cl)cc4F)n3)CC1)n2C[C@@H]1CCO1` [Compound 98] it is 16.9 nM; for `CC(C)c1n[nH]c2ccc(NC(=O)c3ccc4c(c3)nc(CN3CCC(c5cccc(OCc6ccc(Cl)cc6F)n5)CC3)n4C[C@@H]3CCO3)cc12` [Compound 83] it is 3.76 nM.
The figure for `O=C(Nc1ccc2[nH]nnc2c1)c1ccc2c(c1)nc(CN1CCC(c3cccc(OCc4ccc(Cl)cc4F)n3)CC1)n2C[C@@H]1CCO1` [Compound 193] is 0.21 nM; for `Cc1n[nH]c2c(F)cc(C(=O)Nc3ccc4c(c3)nc(CN3CC=C(c5cccc(OCc6cc(F)c(C#N)s6)n5)CC3)n4C[C@@H]3CCO3)cc12` [Compound 362] it is 0.85 nM; for `Cc1nc2cccc(COc3cccc(C4CCN(Cc5nc6cc(C(=O)Nc7ccc8[nH]nc(C)c8c7)ccc6n5C[C@@H]5CCO5)CC4)n3)c2s1` [Compound 381] it is 1.99 nM.
With `Cc1n[nH]c2c(F)cc(NC(=O)c3ccc4c(c3)nc(CN3CCC(c5cccc(OCc6ccc(C#N)c7c6ncn7C)n5)CC3)n4C[C@@H]3CCO3)cc12` [Compound 379] the figure was 3.12 nM; with `Cc1n[nH]c2ccc(C(=O)Nc3ccc4nc(CN5CC=C(c6cccc(OCc7ccc(C#N)cc7F)n6)CC5)n(CC5CCO5)c4c3)cc12` (stereo not drawn) [Compound 290], 1.2 nM.
Consider `CC1(c2ccc(Cl)cc2F)Oc2cccc(C3=CCN(Cc4nc5cc(C(=O)Nc6ccc7[nH]nc(F)c7c6)ccc5n4CC4CCO4)CC3)c2O1` (stereo not drawn) [Compound 328], for which it took 12.7 nM to reach a half-maximal effect (EC50).
The figure for `O=C(Nc1ccc2c(c1)nc(CN1CC=C(c3cccc(OCc4ccc(Cl)cc4F)n3)CC1)n2C[C@@H]1CCO1)c1ccc2[nH]ccc2c1` [Compound 393] is 15.2 nM; for `O=C(Nc1ccc2c(c1)nc(CN1CC=C(c3cccc(OCc4ccc(Cl)cc4F)n3)CC1)n2C[C@@H]1CCO1)c1ccc2[nH]nc(F)c2c1` [Compound 202] it is 2.21 nM.
Regarding `COCCn1c(CN2CCC(c3cccc(OCc4ccc(Cl)cc4F)n3)CC2)nc2cc(C(=O)NCc3ccc(C#N)cc3)ccc21` [Compound 30], it took 1380 nM to reach a half-maximal effect (EC50).
The figure for `CC(C)c1n[nH]c2ccc(C(=O)Nc3ccc4c(c3)nc(Cc3cc(F)c(-c5cccc6c5OC(C)(c5ccc(C#N)cc5F)O6)cc3F)n4CC3CCO3)cc12` (stereo not drawn) [Compound 323] is 2.73 nM.
With `Cc1n[nH]c2c(C)cc(NC(=O)c3ccc4nc(CN5CC=C(c6cccc(OCc7ccc(Cl)cc7F)n6)CC5)n(CC5CCO5)c4c3)cc12` (stereo not drawn) [Compound 264] the figure was 4.22 nM; with `O=C(Nc1ccc2c(c1)nc(CN1CC=C(c3cccc(OCc4ccc(Cl)cn4)n3)CC1)n2C[C@@H]1CCO1)c1cc(C(F)(F)F)c2c(c1)C1(CC1)C(=O)N2` [Compound 211], 1.02 nM.
With `Cc1n[nH]c2cc(F)c(NC(=O)c3ccc4c(c3)nc(CN3CC=C(c5cccc(OCc6ccc(Cl)cc6F)n5)CC3)n4C[C@@H]3CCO3)cc12` [Compound 174] the figure was 2.13 nM; with `O=C(Nc1ccc2nc(CN3CC=C(c4cccc(OCc5ccc(Cl)cc5F)n4)CC3)n(C[C@@H]3CCO3)c2c1)c1ccc2[nH]c(=O)[nH]c2c1` [Compound 285], 0.42 nM.
In turn, `Cc1[nH]c2ccc(C(=O)Nc3ccc4c(c3)nc(CN3CC=C(c5cccc(OCc6ccc(Cl)cn6)n5)CC3)n4C[C@@H]3CCO3)cc2c1C` [Compound 392] registered a 50% effective concentration (EC50) of 10.1 nM. This EC50 lies about 24-fold higher than the previous one.
With `Cc1nc2cccc(COc3cccc(C4=CCN(Cc5nc6cc(C(=O)Nc7ccc8[nH]nc(C)c8c7)ccc6n5C[C@@H]5CCO5)CC4)n3)c2s1` [Compound 369] the figure was 2.91 nM.
For the molecule `O=C(Nc1cc(F)c2[nH]ncc2c1)c1ccc2c(c1)nc(CN1CC=C(c3cccc(OCc4ccc(Cl)cc4F)n3)CC1)n2C[C@@H]1CCO1` [Compound 152], it took 0.64 nM to reach a half-maximal effect (EC50).
With `Cc1cc2c(C#N)ccc(COc3cccc(C4=CCN(Cc5nc6cc(C(=O)Nc7ccc8[nH]nc(C)c8c7)ccc6n5C[C@@H]5CCO5)CC4)n3)c2o1` [Compound 355] the figure was 0.78 nM; with `Cc1cc(-c2cccc3c2OC(C)(c2ccc(Cl)cc2F)O3)cc(F)c1Cc1nc2cc(NC(=O)c3ccc4[nH]nc(C5CC5)c4c3)ccc2n1CC1CCO1` (stereo not drawn) [Compound 324], 2.95 nM.
With `Fc1cc(Cl)ccc1COc1cccc(C2=CCN(Cc3nc4ccc(CNc5cc(F)c6[nH]ncc6c5)cc4n3C[C@@H]3CCO3)CC2)n1` [Compound 268] the figure was 3.64 nM; with `Cc1n[nH]c2c(C(F)(F)F)cc(C(=O)Nc3ccc4c(c3)nc(Cc3ccc(-c5cccc6c5OC(C)(c5ccc(C#N)cc5F)O6)cc3F)n4C[C@@H]3CCO3)cc12` (stereo partly drawn) [Compound 325], 1.05 nM; with `Cc1cc(-c2cn(-c3ccc4c(c3)nc(CN3CC=C(c5cccc(OCc6ccc(Cl)cc6F)n5)CC3)n4C[C@@H]3CCO3)cn2)[nH]n1` [Compound 397], 127 nM.
Consider `Cc1cc(C(=O)Nc2ccc3c(c2)nc(CN2CC=C(c4cccc(OCc5ccc(Cl)cc5F)n4)CC2)n3C[C@@H]2CCO2)cc2c1NC(=O)C21CC1` [Compound 209], for which the concentration giving a half-maximal response (EC50) turned out to be 0.32 nM.
The figure for `O=C(NCC(=O)N1C[C@@H](O)[C@@H](O)C1)c1ccc2c(c1)nc(CN1CCC(c3cccc(OCc4ccc(Cl)cc4F)n3)CC1)n2C[C@@H]1CCO1` [Compound 67] is 5.89 nM; for `C[C@]12C[C@@H](C(=O)O)N(C(=O)CNC(=O)c3ccc4c(c3)nc(CN3CCC(c5cccc(OCc6ccc(Cl)cc6F)n5)CC3)n4C[C@@H]3CCO3)[C@@]1(C)C2` [Compound 55] it is 1.83 nM; for `O=C(CNC(=O)c1ccc2c(c1)nc(CN1CCC(c3cccc(OCc4ccc(Cl)cc4F)n3)CC1)n2C[C@@H]1CCO1)N[C@@H](CO)C(=O)O` [Compound 49] it is 2.47 nM.
The figure for `CC1(c2ccc(Cl)cc2F)Oc2cccc(C3=CCN(Cc4nc5cc(C(=O)Nc6ccc7[nH]nc(C(F)(F)F)c7c6)ccc5n4CC4CCO4)CC3)c2O1` (stereo not drawn) [Compound 297] is 3.65 nM; for `O=C(Nc1cc(C(F)(F)F)c2c(c1)C1(CC1)C(=O)N2)c1ccc2c(c1)nc(CN1CCC(c3cccc(OCc4ccc(Cl)cc4F)n3)CC1)n2C[C@@H]1CCO1` [Compound 107] it is 1.83 nM.
Molecule `Cc1n[nH]c2c(Cl)cc(NC(=O)c3ccc4c(c3)nc(CN3CCC(c5cccc(OCc6ccc(Cl)cc6F)n5)CC3)n4C[C@@H]3CCO3)cc12` [Compound 110] yielded an EC50 of 4.45 nM.
With `Cc1nc2ccc(NC(=O)c3ccc4c(c3)nc(CN3CCC(c5cccc(OCc6ccc(Cl)cc6F)n5)CC3)n4C[C@@H]3CCO3)cc2s1` [Compound 95] the figure was 62 nM; with `N#Cc1ccc(COc2cccc(C3=CCN(Cc4nc5cc(NC(=O)c6cc(F)c7c(c6)C6(CC6)C(=O)N7)ccc5n4C[C@@H]4CCO4)CC3)n2)c(F)c1` [Compound 226], 0.12 nM; with `CCc1n[nH]c2ccc(NC(=O)c3ccc4c(c3)nc(CN3CC=C(c5cccc(OCc6ccc(C#N)cc6F)n5)CC3)n4C[C@@H]3CCO3)cc12` [Compound 186], 2.12 nM.
With `Cc1n[nH]c2c(C(F)(F)F)cc(C(=O)Nc3ccc4c(c3)nc(CN3CC=C(c5cccc6c5OC(C)(c5ccc(Cl)cc5F)O6)CC3)n4C[C@@H]3CCO3)cc12` (stereo partly drawn) [Compound 313] the figure was 1.39 nM.
For `O=C(Nc1ccc2[nH]nc(C(F)F)c2c1)c1ccc2c(c1)nc(CN1CCC(c3cccc(OCc4ccc(Cl)cc4F)n3)CC1)n2C[C@@H]1CCO1` [Compound 115], the response was half-maximal at 0.87 nM (EC50). This EC50 is about 1.6-fold lower than that of the molecule before.
With `Cc1cc(C(=O)Nc2ccc3c(c2)nc(CN2CC=C(c4cccc(OCc5ccc(Cl)cc5F)n4)CC2)n3C[C@@H]2CCO2)cc2nn[nH]c12` [Compound 242] the figure was 0.17 nM.
The figure for `O=C(Nc1ncc2[nH]cnc2n1)c1ccc2c(c1)nc(CN1CCC(c3cccc(OCc4ccc(Cl)cc4F)n3)CC1)n2C[C@@H]1CCO1` [Compound 89] is 87.8 nM; for `COCCn1c(CN2CCC(c3cccc(OCc4ccc(Cl)cc4F)n3)CC2)nc2cc(C(=O)NCC(CC(=O)O)c3ccccc3)ccc21` (stereo not drawn) [Compound 41] it is 376 nM.
With `Cc1n[nH]c2ccc(C(=O)Nc3ccc4c(c3)nc(CN3CC=C(c5cccc(OCc6ccc(Cl)cc6F)n5)CC3)n4C[C@@H]3CCO3)cc12` [Compound 4, (S)—N-(2-((6-((4-chloro-2-fluorobenzyl)oxy)-3′,6′-dihydro-[2,4′-bipyridin]-1′(2′H)-yl)methyl)-1-(oxetan-2-ylmethyl)-1H-benzo[d]imidazol-5-yl)-3-methyl-1H-indazole-5-carboxamide] the figure was 0.14 nM.
`Cc1cc(C(=O)Nc2ccc3c(c2)nc(Cc2c(F)cc(-c4cccc5c4OC(C)(c4ccc(Cl)cc4F)O5)cc2F)n3C[C@@H]2CCO2)cc2[nH]c(=O)[nH]c12` (stereo partly drawn) [Compound 321] yielded an EC50 of 0.94 nM.
With `COCCn1c(CN2CCC(c3cccc(OCc4ccc(Cl)cc4F)n3)CC2)nc2cc(C(=O)NCc3ccc(NC(C)=O)cc3)ccc21` [Compound 27] the figure was 129 nM; with `N#Cc1ccc(COc2cccc(C3CCN(Cc4nc5cc(C(=O)Nc6ccc7[nH]nc(C(F)(F)F)c7c6)ccc5n4C[C@@H]4CCO4)CC3)n2)c(F)c1` [Compound 130], 1.34 nM.
The figure for `O=C(Nc1ccc2c(c1)nc(CN1CC=C(c3cccc(OCc4ccc(Cl)cc4F)n3)CC1)n2C[C@@H]1CCO1)c1ccc2[nH]nnc2c1` [Compound 241] is 0.31 nM; for `O=C(Nc1ccc2nc(CN3CC=C(c4cccc(OCc5ccc(Cl)cc5F)n4)CC3)n(C[C@@H]3CCO3)c2c1)c1cc(F)c2[nH]ncc2c1` [Compound 283] it is 10.2 nM.
